SMILES	melting point [°C]
CS(=O)(=O)c1ccc(S(C)(=O)=O)nc1	205 to 207
COC(=O)c1cc(I)ccc1NS(C)(=O)=O	119 to 120
COc1ccc(Cl)c2nc(SCc3ccccc3)nn12	90 to 91
O=c1c2c(oc3ccc(Br)cc13)CCCC2	149 to 150
O[C@H]1CSC(c2ccccc2)=N[C@@H]1c1ccccc1 (racemic)	142
O=S(=O)(Cl)c1ccc2oc(Br)c(CBr)c2c1	129 to 130
Cc1cc(Oc2ccc([N+](=O)[O-])cc2)c2cc3c(cc2n1)OCO3	210 to 212
CSc1ccc(CCN2CCN(C(=O)c3ccc(N(CCOC(C)C)C(=O)CCl)cc3)CC2)cc1	115 to 116
CCCN(CCCCNc1ncc(Cc2ccnc(O)c2)c(=O)[nH]1)c1ccccn1	138 to 140
CC(C)c1cc(S(N)(=O)=O)c(C(C)C)cc1Br	145 to 152
Cc1oc(-c2ccc3ccccc3c2)nc1COc1ccc(/C=C/CO)cc1	159 to 160
CCOC(=O)c1cc2cc(NC(=O)OC(C)(C)C)ccc2[nH]1	190 to 192
C[C@H]1CC[C@H]2C(C)(C)[C@H](OS(=O)(=O)c3ccccc3)CC[C@]23Oc2c(c(O)cc4c2CNC4=O)C[C@]13C	160 to 162
Cn1c(CO)nc2ccc(-c3ccccc3)nc21	174 to 177
COc1ccc(O)c(CC=Cc2ccccc2C#N)c1	72 to 74
O=C1C(Cl)C(CCl)CN1c1cccc(Cl)c1 (stereo not drawn)	93 to 94
CC1CCc2nc3c(N)nc4ccccc4c3n2N1 (stereo not drawn)	241 to 243
CC1(C)CC(=C[C@H]2[C@H](C(=O)O)C2(C)C)CC(C)(C)C1 (relative stereo)	116
N#Cc1cnc2cc3cc(O)ccc3cc2c1Nc1ccc(Cl)cc1Cl	267 to 269
Cc1cccc(Nc2cc(Cl)nc(SCC(N)=O)n2)c1C	188 to 191
CCCCC/C(=C\C=C\C(=O)Oc1ccc([N+](=O)[O-])cc1)c1ccc(OC)cc1	46 to 47
c1ccc2c(c1)cc1cnc(Nc3ccc(N4CCOCC4)cc3)nn12	205 to 210
CCOC(=O)N1CCN(c2c(F)c(N)c3c(=O)c(C(=O)O)cn(C4CC4)c3c2F)C(C)C1 (stereo not drawn)	220 to 225
COC(=O)C(C(=O)Cc1ccccc1)C1c2ccccc2C(=O)N1c1ccc2ccc(Cl)nc2n1 (stereo not drawn)	185
CCOC(=O)CN1C(=O)C(N=[N+]=[N-])CCc2ccc(OC)cc21 (stereo not drawn)	90 to 91

SMILES	melting point [°C]
CN(Cc1cn(C23CC4CC(CC(C4)C2)C3)nn1)Cc1cccs1	66 to 68
OC(CCCCCCCCCOCc1ccccc1)c1ccc(OCc2ccccc2)c(OCc2ccccc2)c1 (stereo not drawn)	45 to 47
Brc1ccc(-c2cn([C@H]3CN4CCC3CC4)nn2)o1	144
CCCc1nc2c(N)nc3cc(OCc4cccnc4)ccc3c2s1	167 to 169
Cc1nc(-c2ccccc2)cc(-c2ccc([N+](=O)[O-])cc2)c1C(=O)O	260 to 263
CN1CCN(CCC(=O)N2c3ccccc3C(=O)Nc3cccnc32)CC1	232 to 233
COC(=O)C1CCC2C3CCC4CC(O)CCC4(C)C3C(N)CC12C (stereo not drawn)	113 to 116
O=S1(=O)C(CN2CCCCC2)=Cc2ccc(Cl)cc21	154 to 156
CCOC(=O)[C@H](CSC(=O)c1ccccc1)NC(=O)c1ccccc1	81
Cc1nn(-c2ccccn2)c2nc3ccccc3c(C)c12	157 to 159
COC(C)c1nc(C(C)(C)O)c(C(=O)O)n1Cc1ccc(-c2ccccc2-c2nnn[nH]2)cc1 (stereo not drawn)	174 to 185
C=Cc1cccc(C(=O)NC(Nc2c(Nc3cccnc3)c(=O)c2=O)C(C)(C)C)c1 (stereo not drawn)	209 to 210
NC(=O)C1CCCc2c1c1cc(OCCCC(=O)O)ccc1n2Cc1ccccc1 (stereo not drawn)	199 to 200
COc1ccc(-c2nnc3c4ccccc4c(O)nn23)cc1	307 to 309
Cn1nc(C(F)(F)F)cc1O	170 to 173
CCOc1cc(F)cc2c1c(CCN(C)C)cn2CC	77.1 to 78.2
CC(C=O)Oc1ccc(OCc2ccccc2)cc1 (stereo not drawn)	50 to 51
O=C(Cc1ccc(OCc2ccccc2)cc1)Nc1c(C(=O)O)oc2cc(-c3ccc(Cl)cc3)ccc12	211 to 212
CC(C)(C)OC(=O)C12CC3CC(C1)CC(C(=O)OC(C)(C)C)(C3)C2	65 to 66
Cc1ccc2c(c1)C=Cc1cc(C(C)C)ccc1C2c1cn(Cc2ccc(C(=O)O)o2)c(=O)[nH]c1=O (stereo not drawn)	150 to 160
COC(=O)c1cccc2[nH]c(-c3ccc(Cl)cc3)c(C=O)c12	221 to 222
CCCCn1ccc(Cc2cnc(N[N+](=O)[O-])[nH]c2=O)cc1=O	198 to 201
COc1cc(N)c(Cl)cc1C(=O)NC1CCN(CC2CCN(C(=O)Nc3ccccc3)CC2)CC1	212 to 214
O=C1c2ccccc2C(=O)N1CCCC(O)CF (stereo not drawn)	85
O=c1c2ccccc2nc(-c2cc(-c3ccc(Cl)cc3)c(N3CCOCC3)s2)n1-c1ccccc1	229 to 230

SMILES	melting point [°C]
COc1cccc(NN=C(Sc2ccc(Cl)cc2)C(C)=O)c1	107 to 108
COC1=CC(=O)c2c(cc(Br)c(O)c2Br)C1=O	224 to 228
N=C(N)NC(=O)Cn1c(C(=O)c2ccccc2)ccc1-c1ccccc1	201 to 203
CCOC(=O)C1=C2Nc3ccccc3N2CC1	269 to 271
O=C(O)Cc1ccccc1OCc1cn(-c2ccc(C(F)(F)F)cn2)nc1C1CCCCC1	131 to 132
COc1ccc(N2CCN(c3c(C)c(C)c4c(c3C)CC(C)(C)O4)CC2)cc1C	137 to 141
O=C1c2ccccc2C(=O)c2oc(-c3ccccc3)nc21	> 260
CCCCC[C@@H](CNC(=O)Nc1c(OC(C)C)ccc2c1CCCC2)c1cccc2c1OCO2	115
O=C(CCCl)NCc1ccc2ccn(C3CCN(CCc4ccc(F)cc4)CC3)c2c1	121 to 122
COc1cc(NC(=O)OC(C)(C)C)cc(OC)c1SC	124 to 126
O=C(C=Cc1ccc(F)cc1)c1cccs1	117 to 120
CCOC(=O)C(NC(=O)CS(C)=O)C(=O)OCC (stereo not drawn)	85 to 87
CC(C)(C)OC(=O)N1CCN(C(=O)N2CCC(c3[nH]nc4c3C(=O)c3c(NC(=O)NN5CCOCC5)cccc3-4)CC2)CC1	231 to 232
c1ccn(Nc2ncnc3c2ncn3-n2cccc2)c1	230 to 232
CCNC1=C(c2ccc(OC)cc2)C(=O)c2cc(OC)ccc21	88 to 90
Cc1cc(C)c2nc(C3CC3)n(Cc3ccc(C4(C(=O)O)CCCCC4)s3)c2n1	175 to 176
CC(C)C1NCC(=O)N1CC(N)=O (stereo not drawn)	64
Cc1nc(-c2ccc(-c3cscn3)cc2)c(-c2ccc(S(C)(=O)=O)c(F)c2)o1	196 to 197
CC1=C(C)C(=O)N(OC(=S)N(C)C)C1=O	135 to 138
CC(C)(C)OC(=O)C(NN)C(=O)O (stereo not drawn)	144 to 146
CCOC(=O)Cc1nc(-c2ccc(Cl)c(Cl)c2)oc1-c1ccoc1	130 to 131
OC(CCl)(Cc1ccc(Cl)cc1Cl)c1ccc(-c2ccccc2)cc1 (stereo not drawn)	84
CCC1CC2C3CCc4cc(OC)ccc4C3CCC2(CC)C1=O (stereo not drawn)	101 to 102
